This note sets out measurements from patent publication US12723063B2, “GIPR-agonist compounds” (Eli Lilly and Company, priority 2019, dated 2026).

*1 amine or outer side, *2 acyl side, *3 side chain or, on linkers, in order; H or OH if unused. Where a SMILES comes first, the peptide text is derived from it. Side-chain parts run from the residue outwards. [ ]: non-standard residue; d: D form. The star is where a group is joined. C20 diacid = O=C(O)CCCCCCCCCCCCCCCCCCC(=O)*; C18 diacid = O=C(O)CCCCCCCCCCCCCCCCC(=O)*; αMePhe(2-F) = C[C@](N)(Cc1ccccc1F)C(=O)O; γGlu = O=C(O)[C@H](CCC(=O)[*:2])N[*:1]; 4Pal = N[C@@H](Cc1ccncc1)C(=O)O; αMeL = CC(C)C[C@](C)(N)C(=O)O; Iva = CC[C@](C)(N)C(=O)O; AEEA = NCCOCCOCC(=O)O; Aib = CC(C)(N)C(=O)O Some results are limits rather than exact numbers.

Assay in all cases: cAMP functional assay (HTRF) in HEK293 cells in presence of 0.1% casein
Common to all, as to type: cell-based

The target of assay [1] is T1, human glucose-dependent insulinotropic peptide receptor (GIPR) (Homo sapiens, UniProt P48546).
T1 construct: expressed in transfected cells; host or cells: HEK293
T1 sequence (P48546 22-466): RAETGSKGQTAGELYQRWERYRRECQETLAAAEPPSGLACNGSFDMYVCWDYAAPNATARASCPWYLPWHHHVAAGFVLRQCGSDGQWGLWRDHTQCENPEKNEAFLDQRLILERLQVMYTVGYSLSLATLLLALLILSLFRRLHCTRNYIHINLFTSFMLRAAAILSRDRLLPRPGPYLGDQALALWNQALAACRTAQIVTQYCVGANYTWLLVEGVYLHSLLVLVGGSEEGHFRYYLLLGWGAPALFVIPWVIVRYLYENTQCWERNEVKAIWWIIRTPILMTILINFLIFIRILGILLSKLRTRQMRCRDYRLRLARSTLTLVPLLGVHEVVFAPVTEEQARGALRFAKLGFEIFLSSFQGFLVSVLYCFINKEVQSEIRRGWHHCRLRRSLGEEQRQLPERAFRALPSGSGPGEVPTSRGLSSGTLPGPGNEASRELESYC
Conditions: HEK293 cells expressing human GIPR, geometric mean, read-out: hGIPR cAMP Rel EC50 nM (SEM, n).

Assay [2] concerns the target T2, human GLP-1 receptor (GLP-1R) (Homo sapiens, UniProt P43220).
T2 construct: expressed in transfected cells; host or cells: HEK293
Conditions: HEK293 cells expressing human GLP-1R, geometric mean, read-out: hGLP1R cAMP Rel EC50 nM (SEM, n).

For assay [3], the target named is T3, human glucagon receptor (GcgR) (Homo sapiens, UniProt P47871).
T3 construct: expressed in transfected cells; host or cells: HEK293
T3 sequence (P47871 26-477): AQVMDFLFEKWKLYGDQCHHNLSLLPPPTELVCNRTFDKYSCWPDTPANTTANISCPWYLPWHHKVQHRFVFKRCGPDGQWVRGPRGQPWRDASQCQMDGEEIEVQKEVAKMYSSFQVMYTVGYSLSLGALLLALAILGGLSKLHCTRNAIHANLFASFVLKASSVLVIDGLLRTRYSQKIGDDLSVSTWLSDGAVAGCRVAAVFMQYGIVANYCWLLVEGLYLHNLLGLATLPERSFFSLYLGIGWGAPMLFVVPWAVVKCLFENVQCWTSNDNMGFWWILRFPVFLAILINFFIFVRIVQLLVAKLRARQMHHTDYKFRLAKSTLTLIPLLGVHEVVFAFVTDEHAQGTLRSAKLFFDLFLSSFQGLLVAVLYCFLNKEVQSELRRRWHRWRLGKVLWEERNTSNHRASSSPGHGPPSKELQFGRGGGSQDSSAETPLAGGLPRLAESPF
Conditions: HEK293 cells expressing human GcgR, geometric mean, read-out: hGcgR cAMP Rel EC50 nM (SEM, n).

T2 sequence (P43220 24-463): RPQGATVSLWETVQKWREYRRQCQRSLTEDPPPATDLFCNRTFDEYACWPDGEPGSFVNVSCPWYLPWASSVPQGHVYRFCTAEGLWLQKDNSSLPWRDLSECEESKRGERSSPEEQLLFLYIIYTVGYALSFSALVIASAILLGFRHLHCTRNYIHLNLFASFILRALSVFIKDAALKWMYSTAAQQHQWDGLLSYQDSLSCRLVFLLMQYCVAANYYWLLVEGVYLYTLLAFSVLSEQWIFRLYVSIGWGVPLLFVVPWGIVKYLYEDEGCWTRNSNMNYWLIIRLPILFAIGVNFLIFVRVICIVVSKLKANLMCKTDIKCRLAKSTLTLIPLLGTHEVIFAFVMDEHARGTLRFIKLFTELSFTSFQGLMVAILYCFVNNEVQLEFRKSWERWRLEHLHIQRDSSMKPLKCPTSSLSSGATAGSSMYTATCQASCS

Regarding `CC[C@H](C)[C@H](NC(=O)[C@H](CO)NC(=O)[C@H](Cc1ccc(O)cc1)NC(=O)[C@H](CC(=O)O)NC(=O)[C@H](CO)NC(=O)[C@@H](NC(=O)[C@H](Cc1ccccc1)NC(=O)[C@@H](NC(=O)CNC(=O)[C@H](CCC(=O)O)NC(=O)[C@@H](C)NC(=O)[C@@H](N)Cc1ccc(O)cc1)[C@@H](C)O)[C@@H](C)CC)C(=O)N[C@@H](CC(C)C)C(=O)N[C@@H](CC(C)C)C(=O)N[C@@H](CC(=O)O)C(=O)N[C@@H](CCCCN)C(=O)N[C@@H](CCCCNC(=O)COCCOCCNC(=O)COCCOCCNC(=O)CC[C@H](NC(=O)CCCCCCCCCCCCCCCCC(=O)O)C(=O)O)C(=O)N[C@@H](C)C(=O)N[C@@H](CCC(N)=O)C(=O)NC(C)(C)C(=O)N[C@@H](CCC(=O)O)C(=O)N[C@@H](Cc1ccccc1)C(=O)N[C@H](C(=O)N[C@@H](CCC(=O)O)C(=O)N[C@@H](Cc1c[nH]c2ccccc12)C(=O)N[C@@H](CC(C)C)C(=O)N[C@@H](CC(C)C)C(=O)N[C@@H](C)C(=O)NCC(=O)NCC(=O)N1CCC[C@H]1C(=O)N[C@@H](CO)C(=O)N[C@@H](CO)C(=O)NCC(=O)N[C@@H](C)C(=O)N1CCC[C@H]1C(=O)N1CCC[C@H]1C(=O)N1CCC[C@H]1C(=O)N[C@@H](CO)C(N)=O)C(C)C` [Example 29] (H-Y[dA]EGTFISDYSILLDKK([AEEA-AEEA-γGlu-C18 diacid])AQ[Aib]EFVEWLLAGGPSSGAPPPS-NH2), the values for the EC50 in assay [1], in assay [2] and in assay [3] were 0.00679 nM, above 5000 nM and above 5000 nM, respectively.

As for `CC[C@H](C)[C@H](NC(=O)[C@H](CO)NC(=O)[C@H](Cc1ccc(O)cc1)NC(=O)[C@H](CC(=O)O)NC(=O)[C@H](CO)NC(=O)[C@@H](NC(=O)[C@](C)(Cc1ccccc1F)NC(=O)[C@@H](NC(=O)CNC(=O)[C@H](CCC(=O)O)NC(=O)[C@H](C)NC(=O)[C@@H](Cc1ccc(O)cc1)NC(C)=O)[C@@H](C)O)[C@@H](C)CC)C(=O)N[C@@H](C)C(=O)N[C@@H](CC(C)C)C(=O)N[C@@H](CC(=O)O)C(=O)N[C@@H](CCCCN)C(=O)N[C@@H](CCCCNC(=O)COCCOCCNC(=O)COCCOCCNC(=O)CC[C@H](NC(=O)CCCCCCCCCCCCCCCCC(=O)O)C(=O)O)C(=O)N[C@@H](Cc1c[nH]cn1)C(=O)N[C@@H](CCC(N)=O)C(=O)NC(C)(C)C(=O)N[C@@H](CCC(=O)O)C(=O)N[C@@H](Cc1ccccc1)C(=O)N[C@H](C(=O)N[C@@H](CC(N)=O)C(=O)N[C@@H](Cc1ccc(O)cc1)C(=O)N[C@@H](CC(C)C)C(=O)N[C@@H](CC(C)C)C(=O)N[C@@H](C)C(=O)NCC(=O)NCC(=O)N1CCC[C@H]1C(=O)N[C@@H](CO)C(=O)N[C@@H](CO)C(=O)NCC(=O)N[C@@H](C)C(=O)N1CCC[C@H]1C(=O)N1CCC[C@H]1C(=O)N1CCC[C@H]1C(=O)N[C@@H](CO)C(N)=O)C(C)C` [Example 30] (Ac-[dY]AEGT[αMePhe(2-F)]ISDYSIALDKK([AEEA-AEEA-γGlu-C18 diacid])HQ[Aib]EFVNYLLAGGPSSGAPPPS-NH2), the EC50 in assay [1] is 0.00572 nM; in assay [2], above 5000 nM; in assay [3] it was above 5000 nM.

With `CC[C@H](C)[C@H](NC(=O)[C@H](CO)NC(=O)[C@H](Cc1ccc(O)cc1)NC(=O)[C@H](CC(=O)O)NC(=O)[C@H](CO)NC(=O)[C@@H](NC(=O)[C@H](Cc1ccccc1)NC(=O)[C@@H](NC(=O)CNC(=O)[C@H](CCC(=O)O)NC(=O)C(C)(C)NC(=O)[C@@H](N)Cc1ccc(O)cc1)[C@@H](C)O)[C@@H](C)CC)C(=O)N[C@@H](CC(C)C)C(=O)N[C@@H](CC(C)C)C(=O)N[C@@H](CC(=O)O)C(=O)N[C@@H](CCCCN)C(=O)N[C@@H](CCCCNC(=O)COCCOCCNC(=O)COCCOCCNC(=O)CC[C@H](NC(=O)CCCCCCCCCCCCCCCCC(=O)O)C(=O)O)C(=O)N[C@@H](Cc1c[nH]cn1)C(=O)N[C@@H](CCC(N)=O)C(=O)NC(C)(C)C(=O)N[C@@H](CC(=O)O)C(=O)N[C@@H](Cc1ccccc1)C(=O)N[C@H](C(=O)N[C@@H](CC(N)=O)C(=O)N[C@@H](Cc1ccc(O)cc1)C(=O)N[C@@H](CC(C)C)C(=O)N[C@@H](CC(C)C)C(=O)N[C@@H](C)C(=O)N[C@@H](C)C(=O)NCC(=O)N1CCC[C@H]1C(=O)N[C@@H](CO)C(=O)N[C@@H](CO)C(=O)NCC(=O)N[C@@H](C)C(=O)N1CCC[C@H]1C(=O)N1CCC[C@H]1C(=O)N1CCC[C@H]1C(=O)N[C@@H](CO)C(N)=O)C(C)C` [Example 31] (H-Y[Aib]EGTFISDYSILLDKK([AEEA-AEEA-γGlu-C18 diacid])HQ[Aib]DFVNYLLAAGPSSGAPPPS-NH2), the EC50 in assay [1] is 0.0148 nM; in assay [2] it was above 5000 nM; in assay [3] it was 1750 nM.

Regarding `CC[C@H](C)[C@H](NC(=O)[C@H](CC(C)C)NC(=O)[C@@H](NC(=O)CNC(=O)[C@H](CCC(=O)O)NC(=O)C(C)(C)NC(=O)[C@@H](N)Cc1ccc(O)cc1)[C@@H](C)O)C(=O)N[C@@H](CO)C(=O)N[C@@H](CC(=O)O)C(=O)N[C@@H](Cc1ccc(O)cc1)C(=O)N[C@@H](CO)C(=O)N[C@H](C(=O)N[C@@](C)(CC(C)C)C(=O)N[C@@H](CC(C)C)C(=O)N[C@@H](CC(=O)O)C(=O)N[C@@H](CCCCN)C(=O)N[C@@H](CCCCNC(=O)COCCOCCNC(=O)COCCOCCNC(=O)CC[C@H](NC(=O)CCCCCCCCCCCCCCCCCCC(=O)O)C(=O)O)C(=O)N[C@@H](Cc1c[nH]cn1)C(=O)N[C@@H](CCC(N)=O)C(=O)NC(C)(C)C(=O)N[C@@H](CCC(=O)O)C(=O)N[C@@H](Cc1ccccc1)C(=O)N[C@H](C(=O)N[C@@H](CCC(=O)O)C(=O)N[C@@H](Cc1ccc(O)cc1)C(=O)N[C@@H](CC(C)C)C(=O)N[C@@H](CC(C)C)C(=O)N[C@@H](CCC(=O)O)C(=O)NCC(=O)NCC(=O)N1CCC[C@H]1C(=O)N[C@@H](CO)C(=O)N[C@@H](CO)C(=O)NCC(=O)N[C@@H](C)C(=O)N1CCC[C@H]1C(=O)N1CCC[C@H]1C(=O)N1CCC[C@H]1C(=O)N[C@@H](CO)C(N)=O)C(C)C)[C@@H](C)CC` [Example 73] (H-Y[Aib]EGTLISDYSI[αMeL]LDKK([AEEA-AEEA-γGlu-C20 diacid])HQ[Aib]EFVEYLLEGGPSSGAPPPS-NH2), the 50% effective concentration (EC50) in assay [1] was 0.0151 nM; in assay [2] it was above 5000 nM; in assay [3], above 5000 nM.

On to `CC[C@H](C)[C@H](NC(=O)[C@H](CO)NC(=O)[C@H](Cc1ccc(O)cc1)NC(=O)[C@H](CC(=O)O)NC(=O)[C@H](CO)NC(=O)[C@@H](NC(=O)[C@](C)(CC)NC(=O)[C@@H](NC(=O)CNC(=O)[C@H](CCC(=O)O)NC(=O)C(C)(C)NC(=O)[C@@H](N)Cc1ccc(O)cc1)[C@@H](C)O)[C@@H](C)CC)C(=O)N[C@@](C)(CC(C)C)C(=O)N[C@@H](CC(C)C)C(=O)N[C@@H](CC(=O)O)C(=O)N[C@@H](CCCCN)C(=O)N[C@@H](CCCCNC(=O)COCCOCCNC(=O)COCCOCCNC(=O)CC[C@H](NC(=O)CCCCCCCCCCCCCCCCCCC(=O)O)C(=O)O)C(=O)N[C@@H](Cc1c[nH]cn1)C(=O)N[C@@H](CCC(N)=O)C(=O)NC(C)(C)C(=O)N[C@@H](CC(=O)O)C(=O)N[C@@H](Cc1ccccc1)C(=O)N[C@H](C(=O)N[C@@H](CCC(=O)O)C(=O)N[C@@H](Cc1ccncc1)C(=O)N[C@@H](CC(C)C)C(=O)N[C@@H](CC(C)C)C(=O)N[C@@H](CCC(=O)O)C(=O)NCC(=O)NCC(=O)N1CCC[C@H]1C(=O)N[C@@H](CO)C(=O)N[C@@H](CO)C(=O)NCC(=O)N[C@@H](C)C(=O)N1CCC[C@H]1C(=O)N1CCC[C@H]1C(=O)N1CCC[C@H]1C(=O)N[C@@H](CO)C(N)=O)C(C)C` [Example 74] (H-Y[Aib]EGT[Iva]ISDYSI[αMeL]LDKK([AEEA-AEEA-γGlu-C20 diacid])HQ[Aib]DFVE[4Pal]LLEGGPSSGAPPPS-NH2), for which the EC50 was 0.0167 nM in assay [1], above 5000 nM in assay [2] and 627 nM in assay [3].

`CC[C@H](C)[C@H](NC(=O)[C@H](CO)NC(=O)[C@H](Cc1ccc(O)cc1)NC(=O)[C@H](CC(=O)O)NC(=O)[C@H](CO)NC(=O)[C@@H](NC(=O)[C@](C)(CC)NC(=O)[C@@H](NC(=O)CNC(=O)[C@H](CCC(=O)O)NC(=O)C(C)(C)NC(=O)[C@@H](N)Cc1ccc(O)cc1)[C@@H](C)O)[C@@H](C)CC)C(=O)N[C@@](C)(CC(C)C)C(=O)N[C@@H](CC(C)C)C(=O)N[C@@H](CC(=O)O)C(=O)N[C@@H](CCCCN)C(=O)N[C@@H](CCCCNC(=O)COCCOCCNC(=O)COCCOCCNC(=O)CC[C@H](NC(=O)CCCCCCCCCCCCCCCCCCC(=O)O)C(=O)O)C(=O)N[C@@H](Cc1c[nH]cn1)C(=O)N[C@@H](CCC(N)=O)C(=O)NC(C)(C)C(=O)N[C@@H](CC(=O)O)C(=O)N[C@@H](Cc1ccccc1)C(=O)N[C@H](C(=O)N[C@@H](CCC(=O)O)C(=O)N[C@@H](Cc1ccncc1)C(=O)N[C@@H](CC(C)C)C(=O)N[C@@H](CC(C)C)C(=O)N[C@@H](CCC(=O)O)C(=O)N[C@H](C(=O)NCC(=O)N1CCC[C@H]1C(=O)N[C@@H](CO)C(=O)N[C@@H](CO)C(=O)NCC(=O)N[C@@H](C)C(=O)N1CCC[C@H]1C(=O)N1CCC[C@H]1C(=O)N1CCC[C@H]1C(=O)N[C@@H](CO)C(N)=O)[C@@H](C)O)C(C)C` [Example 75] (H-Y[Aib]EGT[Iva]ISDYSI[αMeL]LDKK([AEEA-AEEA-γGlu-C20 diacid])HQ[Aib]DFVE[4Pal]LLETGPSSGAPPPS-NH2): the figures for the EC50 in assay [1], in assay [2] and in assay [3] were 0.0182 nM, above 5000 nM and 2170 nM, respectively.

One may read the EC50 as the concentration giving half of the maximal effect.
